Laboratory results published in ChEMBL document CHEMBL1144896 (2003).

Columns and labels:
Assay type in all cases: functional
BJ [1] = test: hTERT-SEAP (Human telomerase reverse transcriptase-SEAP) activity in immortalized hTERT-BJI at 3.0 uM concentration and level of cell viability determined in MTT assay
BJ [2] = test: hTERT-SEAP (Human telomerase reverse transcriptase-SEAP) activity in immortalized hTERT-BJI at 30.0 uM concentration and level of cell viability determined in MTT assay
BJ [3] = test: hTERT-SEAP (Human telomerase reverse transcriptase-SEAP) activity in immortalized hTERT-BJI at 300.0 uM concentration and level of cell viability determined in MTT assay
BJ [4] = test: Compound was tested for human telomerase reverse transcriptase-SEAP (hTERT-SEAP) activity in immortalized hTERT-BJI at 3.0 uM concentration
BJ [5] = test: Compound was tested for human telomerase reverse transcriptase-SEAP (hTERT-SEAP) activity in immortalized hTERT-BJI at 30.0 uM concentration
BJ [6] = test: Compound was tested for human telomerase reverse transcriptase-SEAP (hTERT-SEAP) activity in immortalized hTERT-BJI at 300.0 uM concentration
NCI-H1299 [7] = test: Compound was tested for human telomerase reverse transcriptase-SEAP (hTERT-SEAP) activity in non-small cell lung cancer H1299 cell at 30.0 uM concentration
NCI-H1299 [8] = test: Compound was tested for human telomerase reverse transcriptase-SEAP (hTERT-SEAP) activity in non-small cell lung cancer H1299 cell at 300.0 uM concentration
NCI-H1299 [9] = test: Compound was tested for human telomerase reverse transcriptase-SEAP (hTERT-SEAP) activity in non-small cell lung cancer H1299 cell at 3.0 uM concentration
NCI-H1299 [10] = test: hTERT-SEAP (Human telomerase reverse transcriptase-SEAP) activity in non-small cell lung cancer H1299 cell at 3.0 uM concentration and level of cell viability determined in MTT assay
NCI-H1299 [11] = test: hTERT-SEAP (Human telomerase reverse transcriptase-SEAP) activity in non-small cell lung cancer H1299 cell at 30.0 uM concentration and level of cell viability determined in MTT assay
NCI-H1299 [12] = test: hTERT-SEAP (Human telomerase reverse transcriptase-SEAP) activity in non-small cell lung cancer H1299 cell at 300.0 uM concentration and level of cell viability determined in MTT assay
BJ [13] = test: hTERT-SEAP (Human telomerase reverse transcriptase-SEAP) activity in immortalized hTERT-BJI at 24 uM concentration and level of cell viability determined in MTT assay
BJ [14] = test: hTERT-SEAP (Human telomerase reverse transcriptase-SEAP) activity in immortalized hTERT-BJI at 240.0 uM concentration and level of cell viability determined in MTT assay
BJ [15] = test: Compound was tested for human telomerase reverse transcriptase-SEAP (hTERT-SEAP) activity in immortalized hTERT-BJI at 24 uM concentration
BJ [16] = test: Compound was tested for human telomerase reverse transcriptase-SEAP (hTERT-SEAP) activity in immortalized hTERT-BJI at 240.0 uM concentration
BJ [17] = test: Compound was tested for human telomerase reverse transcriptase-SEAP (hTERT-SEAP) activity in immortalized hTERT-BJI at 2.4 uM concentration
NCI-H1299 [18] = test: Compound was tested for human telomerase reverse transcriptase-SEAP (hTERT-SEAP) activity in non-small cell lung cancer H1299 cell at 24 uM concentration
NCI-H1299 [19] = test: Compound was tested for human telomerase reverse transcriptase-SEAP (hTERT-SEAP) activity in non-small cell lung cancer H1299 cell at 240.0 uM concentration
NCI-H1299 [20] = test: hTERT-SEAP (Human telomerase reverse transcriptase-SEAP) activity in non-small cell lung cancer H1299 cell at 240.0 uM concentration and level of cell viability determined in MTT assay
NCI-H1299 [21] = test: hTERT-SEAP (Human telomerase reverse transcriptase-SEAP) activity in non-small cell lung cancer H1299 cell at 24 uM concentration and level of cell viability determined in MTT assay
NCI-H1299 [22] = test: hTERT-SEAP (Human telomerase reverse transcriptase-SEAP) activity in non-small cell lung cancer H1299 cell at 2.4 uM concentration and level of cell viability determined in MTT assay
NCI-H1299 [23] = test: Compound was tested for human telomerase reverse transcriptase-SEAP (hTERT-SEAP) activity in non-small cell lung cancer H1299 cell at 2.4 uM concentration

With CCSc1cccc2c1C(=O)c1cccc(SCC)c1C2=O as the compound, how does the Relative viability (BJ [1]) read?
The Relative viability was 112%.

And the Relative viability (BJ [2])?
Its Relative viability is 98%.

What about the Relative viability (BJ [3]) of the same compound?
The Relative viability was 34%.

And the “Relative SEAP activity” value (BJ [4])?
Its value is 109%.

What about the “Relative SEAP activity” value (BJ [5]) of the same compound?
The value was 110%.

And the “Relative SEAP activity” value (BJ [6])?
The value was 104%.

And the “Relative SEAP activity” value (NCI-H1299 [7])?
The value was 111%.

What about the “Relative SEAP activity” value (NCI-H1299 [8]) of the same compound?
The value was 99%.

What about the “Relative SEAP activity” value (NCI-H1299 [9]) of the same compound?
Its value is 134%.

And the Relative viability (NCI-H1299 [10])?
The Relative viability was 111%.

And the Relative viability (NCI-H1299 [11])?
The Relative viability was 44%.

What about the Relative viability (NCI-H1299 [12]) of the same compound?
Its Relative viability is 25%.

With O=C1c2cccc(SCC(O)CO)c2C(=O)c2cccc(SCC(O)CO)c21 (stereo not drawn) as the compound, how does the Relative viability (BJ [13]) read?
Its Relative viability is 86%.

What about the Relative viability (BJ [14]) of the same compound?
The Relative viability was 79%.

What about the “Relative SEAP activity” value (BJ [15]) of the same compound?
The value was 136%.

What about the “Relative SEAP activity” value (BJ [16]) of the same compound?
Its value is 142%.

What about the “Relative SEAP activity” value (BJ [17]) of the same compound?
Its value is 144%.

And the “Relative SEAP activity” value (NCI-H1299 [18])?
Its value is 90%.

And the “Relative SEAP activity” value (NCI-H1299 [19])?
Its value is 81%.

What about the Relative viability (NCI-H1299 [20]) of the same compound?
Its Relative viability is 83%.

What about the Relative viability (NCI-H1299 [21]) of the same compound?
Its Relative viability is 103%.

And the Relative viability (NCI-H1299 [22])?
The Relative viability was 102%.

What about the “Relative SEAP activity” value (NCI-H1299 [23]) of the same compound?
The value was 105%.
